Literature values in US6174531A, “Methods of preparation of bioginkgo” (priority 1998, dated 2001).
Where two headings read alike, the source gives them in different places.

How the values were obtained:
[1] = system: PAF platelet membrane receptor; conditions: in vitro, literature
[2] = rats, literature
[3] = humans, literature

Row | Compound | specificity of inhibition of PAF binding to its platelet receptors [1] | IC50 ([1]; read-out: IC50, inhibition of PAF binding to its platelet receptors) | half-life compared with ginkgolide A [2] | half-life compared with ginkgolide A [3]
1 | C[C@@H]1C(=O)O[C@H]2C[C@@]34[C@H]5C[C@@H](C(C)(C)C)[C@]36[C@@H](OC(=O)[C@@H]6O)O[C@@]4(C(=O)O5)[C@]21O [ginkgolide A] | highly specific |  |  | 
2 | CC1C(=O)OC2C(O)C34C5CC(C(C)(C)C)C36C(OC(=O)C6O)OC4(C(=O)O5)C12O (stereo not drawn) [ginkgolide B] | highly specific | ~0.1 µM | longer half-life | longer half-life
3 | CC1C(=O)OC2C(O)C34C5OC(=O)C3(OC3OC(=O)C(O)C34C(C(C)(C)C)C5O)C12O (stereo not drawn) [ginkgolide C] | highly specific |  |  | 
